Results reported in patent US4450269A, “Mono-5-substituted-3-chloro-4H-1,2,6-thiadiazin-4-one antifungal agents” (FMC Corporation, priority 1980, dated 1984).
Where two headings read alike, the source gives them in different places.

Legend:
Pyricularia oryzae = format: cell-based; settings: PO, 48 hours
Pythium ultimum = test: Mycelial growth test; format: cell-based; settings: Globisporangium ultimum, 72 h, PU, read-out: Percent Fungus Growth Inhibition

## N#Cc1ccc(Oc2nsnc(Cl)c2=O)cc1 [Compound 10, 3-chloro-5-(4-cyanophenoxy)-4H--1,2,6-thiadiazin-4-one]
Pyricularia oryzae; 1.0 ppm
  Spore Germination Rating: 0 (0-10)
Pyricularia oryzae; 2.5 ppm
  Spore Germination Rating: 0 (0-10)
Pyricularia oryzae; 10 ppm
  Spore Germination Rating: 0 (0-10)
Pyricularia oryzae; 40 ppm
  Spore Germination Rating: 0 (0-10)
Pythium ultimum
  inhibition at 5 ppm: 11%
  inhibition at 10 ppm: 24%
  inhibition at 20 ppm: 42%
  inhibition at 40 ppm: 64%

## Cc1cc(Oc2nsnc(Cl)c2=O)ccc1Cl [Compound 54, 3-chloro-5-(4-chloro-3-methylphenoxy)-4H--1,2,6-thiadiazin-4-one]
Pyricularia oryzae; 1.0 ppm
  Spore Germination Rating: 0 (0-10)
Pyricularia oryzae; 2.5 ppm
  Spore Germination Rating: 0 (0-10)
Pyricularia oryzae; 10 ppm
  Spore Germination Rating: 0 (0-10)
Pyricularia oryzae; 40 ppm
  Spore Germination Rating: 0 (0-10)
Pythium ultimum
  inhibition at 5 ppm: 42%
  inhibition at 10 ppm: 60%
  inhibition at 20 ppm: 71%
  inhibition at 40 ppm: 87%

## C[S+]([O-])c1ccc(Oc2nsnc(Cl)c2=O)cc1 (stereo not shown) [Compound 40, 3-chloro-5-[(4-methylsulfinyl)phenoxy]-4H-1,2,6,-thiadiazin-4-one]
Pyricularia oryzae; 1.0 ppm
  Spore Germination Rating: 4 (80-100)
Pyricularia oryzae; 2.5 ppm
  Spore Germination Rating: 3 (60-80)
Pyricularia oryzae; 10 ppm
  Spore Germination Rating: 4 (80-100)
Pyricularia oryzae; 40 ppm
  Spore Germination Rating: 1 (10-40)
Pythium ultimum
  inhibition at 5 ppm: 0%
  inhibition at 10 ppm: 100%
  inhibition at 20 ppm: 100%
  inhibition at 40 ppm: 100%

## O=c1c(Cl)nsnc1Oc1ccc(Cl)cc1Cl [Compound 17, 3-chloro-5-(2,4-dichlorophenoxy)-4H--1,2,6-thiadiazin-4-one]
Pyricularia oryzae; 1.0 ppm
  Spore Germination Rating: 0 (0-10)
Pyricularia oryzae; 2.5 ppm
  Spore Germination Rating: 0 (0-10)
Pyricularia oryzae; 10 ppm
  Spore Germination Rating: 0 (0-10)
Pyricularia oryzae; 40 ppm
  Spore Germination Rating: 0 (0-10)
Pythium ultimum
  inhibition at 5 ppm: 42%
  inhibition at 10 ppm: 80%
  inhibition at 20 ppm: 100%
  inhibition at 40 ppm: 100%

## O=c1c(Cl)nsnc1Oc1cc(Cl)cc(Cl)c1 [Compound 20, 3-chloro-5-(3,5-dichlorophenoxy)-4H--1,2,6-thiadiazin-4-one]
Pyricularia oryzae; 1.0 ppm
  Spore Germination Rating: 1 (10-40)
Pyricularia oryzae; 2.5 ppm
  Spore Germination Rating: 0 (0-10)
Pyricularia oryzae; 10 ppm
  Spore Germination Rating: 0 (0-10)
Pyricularia oryzae; 40 ppm
  Spore Germination Rating: 0 (0-10)
Pythium ultimum
  inhibition at 5 ppm: 53%
  inhibition at 10 ppm: 91%
  inhibition at 20 ppm: 91%
  inhibition at 40 ppm: 100%
